Assay results published in patent US8685436B2, “Use of hydroxyflavanones for masking bitter taste” (Symrise AG, priority 2001, dated 2014).
Counter-ions that a name gives are not always drawn.

Tests used:
[1] = relatively high concentrations (450 ppm); cited from earlier work
[2] = Debittering black tea, bitterness rated by an expert group; type: in vivo; settings: Tea sample 2 + 0.05% homoeriodictyol disodium salt; scale 1 just perceptibly bitter, 5 very bitter; tea sample 2 alone rated 5
Method: Two different types of black tea were brewed using boiling water (3 g of tea to 100 ml, allowed to infuse for 3 min, filter) and were then tasted by an expert group. The bitterness was rated using a scale of 1 to 5 (1 just perceptibly bitter, 5 very bitter).

[3] = Masking the bitter taste of a β-lactam antibiotic, difference testing and bitter intensity rating by 7 testers; type: in vivo
From the text: A solution of Faropenem Daloxate ([5R-[3(R*),5α,6α(R*)]]-6-(1-hydroxyethyl)-7-oxo-3-(tetrahydro-2-furanyl)-4-thia-1-azabicyclo[3.2.0]hept-2-ene-2-carboxylic acid (5-methyl-2-oxo-1,3-dioxol-4-yl)methyl ester, CAS No. 141702-36-5, 0.1% by weight in water, sample 1) and a mixture of Faropenem Daloxate+homoeriodictyol disodium salt (each 0.1% by weight in water, sample 2) were made up. A group of 7 testers were each given 3 samples for difference testing. 4 testers received sample 1 as a duplicate sample, 3 testers received sample 2 as a duplicate sample. The samples were tasted in differing orders. Of 7 testers, 7 correctly identified the individual sample. The average bitter intensity of sample 1 was rated 5, that of sample 2 was rated 2 (scale 1 to 5).

Q: For `COc1ccc(OC(C)C(=O)[O-])cc1.[Na+]` (stereo not shown) [Lactisol, 2(-4-Methoxyphenoxy)propionic acid sodium salt], which bitter-reducing effect [1] is on record?
A: weak bitter-reducing effect

Q: Which “Rating (1–5) of bitterness” value [2] does the source give for `COc1cc(C2CC(=O)c3c(O)cc(O)cc3O2)ccc1O` (stereo not shown) [homoeriodictyol disodium salt, 2-(4-hydroxy-3-methoxyphenyl)-5,7-dihydroxychroman-4-one] here?
A: 2

Q: And the “average bitter intensity (scale 1 to 5)” value ([3]; sample 2: Faropenem Daloxate + homoeriodictyol disodium salt, each 0.1% by weight in water)?
A: 2

Q: For `Cc1oc(=O)oc1COC(=O)C1=C([C@H]2CCCO2)S[C@@H]2[C@@H]([C@@H](C)O)C(=O)N12` (relative stereo) [Faropenem Daloxate, [5R-[3(R*),5α,6α(R*)]]-6-(1-hydroxyethyl)-7-oxo-3-(tetrahydro-2-furanyl)-4-thia-1-azabicyclo[3.2.0]hept-2-ene-2-carboxylic acid (5-methyl-2-oxo-1,3-dioxol-4-yl)methyl ester], which “average bitter intensity (scale 1 to 5)” value ([3]; sample 1: Faropenem Daloxate alone, 0.1% by weight in water) is on record?
A: 5
